From US20030049317A1, “Method and composition for reducing the danger and preventing the abuse of controlled release pharmaceutical formulations” (priority 2001, published 2003)
Like-named read-outs stand apart in the source and are kept apart here.

Columns and labels:
[1] = assay type: in vivo; conditions: in comparison to a 15 mg dose of hydrocodone
[2] = tested on: morphine-like opioid agonist effects; conditions: cited from earlier work; for action of the naloxone amount in Talwin Nx: naloxone hydrochloride equivalent to 0.5 mg base

Row | Compound | Equianalgesic dose, Calculated Dose [1] | onset of effects ([2]; after intravenous administration) | action of the naloxone amount in Talwin Nx ([2]; given by injection) | action of the naloxone amount in Talwin Nx ([2]; taken orally) | block of heroin effects ([2]; one mg intravenously versus 25 mg of heroin) | effect on morphine-like opioid agonist effects ([2]; small doses (0.4-0.8 mg) intramuscularly or intravenously in humans)
1 | COc1ccc2c3c1O[C@H]1C(=O)CC[C@H]4[C@@H](C2)N(C)CC[C@]314 [Hydrocodone] | 15.0 mg | – | – | – | – | –
2 | C=CCN1CC[C@]23c4c5ccc(O)c4O[C@H]2C(=O)CC[C@@]3(O)[C@H]1C5 [naloxone] | – | almost immediately | profound antagonistic action to narcotic analgesics | no action when taken orally | completely block the effects of 25 mg of heroin | prevents or promptly reverses the effects of morphine-like opioid agonist
